{"source": "paper PMC7481839", "about": "“Switchable foldamer ion channels with antibacterial activity” (Chemical Science, 2020)", "experiment": "Lucigenin assay of Cl− transport in vesicles", "assay_type": "biochemical", "conditions": "10 µM compound, interior NaNO3 200 mM, exterior NaCl (2 M), 0.762 mM lipid, 25°C, first-order curve fit", "experimental": "To confirm that chloride could pass through the bilayers, lucigenin assays[5a] were performed for 2, Cu(II)[1]Cl2 and Cu(II)[2]Cl2 (Fig. 5 and ESI, Fig. S10 ^†). The same lipids were used as for the HPTS assays and lucigenin was encapsulated with NaNO3 in the vesicles.\nFigure S9: Ionophoric activity determined through an HPTS assay in the presence of NaCl (100 mM) for: 2 (10 µM) in the absence (pink inverted triangles) and presence of FCCP (20 µM, blue triangles) and Cu(II)[2]Cl2 (6 µM) in the absence (red circles) and presence of FCCP (20 µM, black squares). Base pulse at 1 min, TX-100 added at 7 min.\n5.4 Preparation of large unilamellar vesicles for lucigenin assays […]\nLucigenin assays procedure and fluorescence normalisation were developed by a modification of published methods.10 An aliquot of the vesicle stock solution (100 μL) w as diluted to 1.9 mL with 200 mM NaNO 3 in water (pH = 7.4) (final lipid co ncentration in cuvette 0.762 mM). […] The cuvette was then placed into a Varian Cary Eclipse fluorescence spectrophotometer in the moderate stirring mode. The fluorescence emission at 505 nm was observed, resulting from excitation at 455 nm, over a period of seven minutes (420 seconds) at 25°C. […] The change in fluorescence was followed for six minutes before final lysis of the vesicles at seven minutes (420 s) by adding an aliquot of a 10 % v/v solution of Triton X-100 […]", "note": "Where a SMILES comes first, the peptide text is derived from it.", "data": [{"smiles": "CC(C)(NC(=O)C(C)(C)NC(=O)C(C)(C)NC(=O)C(C)(C)NC(=O)C(C)(C)n1cc(CN(Cc2ccccn2)Cc2ccccn2)nn1)C(=O)NC(C)(C)C(=O)NC(C)(C)C(=O)NC(C)(C)C(=O)OCC[Si](C)(C)C", "note": "[foldamer 2] (HELM PEPTIDE1{[CC(C)(C(=O)[*:2])n1cc(CN(Cc2ccccn2)Cc2ccccn2)nn1].[Aib].[Aib].[Aib].[Aib].[Aib].[Aib].[Aib].[C[Si](C)(C)CCO[*:1]]}$$$$V2.0)", "values": [{"measurement": "kobs of Cl− transport (lucigenin assay)", "value": 0.0052, "unit": "s⁻¹"}]}]}
